US20210386792A1, “A METHOD FOR INCREASING POPULATION OF SPERMATOGONIAL STEM CELLS” (priority 2018, published 2021)

Legend:
[1] = test system: C-iPS EC; assay: GDNF ELISA in conditioned media from control iPS-derived ECs; format: cell-based, human; conditions: 2 ng/ml FGF-2
Description: (§1) Testis, lung, or liver ECs were plated (10,000 cells ml^−1) on 12 well dishes coated with 0.1% gelatin and cultured for 24 hours. Conditioned media was harvested at 24 and 48 hours after FGF-2 (2 ng ml^−1, 20 ng ml^−1 and 50 ng ml^−1) treatment and analyzed by ELISA for GDNF (Promega GDNF Emax immunoassay system, #G7621) following the manufacturer's instruction. Statistics was analyzed using Graph Pad Prism. For quantification of Gdnf mRNA, total RNA was isolated from the cells using Direct-zol RNA MiniPrep (Zymo Research) and reverse transcribed using High Capacity cDNA Reverse Transcription Kit (Appliedbiosystems), according to the manufacturer's instructions. All gene expression levels were normalized to GAPDH mRNA levels.
(§2) To generate iPSC lines, either human fibroblasts/stromal cells were transduced with pMXs-based retroviral supernatant with human OCT4, SOX2, KLF4, or MYC as described^30, or mononuclear cells were infected with pHage2-CMV-RTTA-W and pHage-Tet-hSTEMMCA-loxP virus as described^31. All cells were culture on 0.1% gelatin-coated dishes in human endothelial cell medium (Lonza; EGM®-MV Bulletkit) with 50 ng ml^−1 additional VEGF. 500,000 disaggregated single embryonic bodies from human iPSCs were cultured for 48 hours. Non-adherent cells were gently removed and adherent cells were cultured for 1-2 passages. […]

[2] = test system: DS-iPS EC; assay: GDNF ELISA in conditioned media from Down syndrome iPS-derived ECs; format: cell-based, human; conditions: 2 ng/ml FGF-2
Description: as §1, §2

[3] = test system: EGR-1; assay: EGR-1 expression in DS-iPS EC; format: cell-based, human
[4] = test system: Thy1.2+GFP+ SSCs; assay: Colony formation of GFP+ SSCs co-cultured with TECs with added growth factors; format: cell-based, mouse; conditions: Thy1.2+GFP+ cells co-cultured with TECs, factors added to growth media
Description: 2D co-cultures were generated by plating 2.7×10^5 cultured GFP^+ SSCs on STO feeder cells 28 or on top of 200 μl of solid matrigel mixture containing TEC (BD bioscience) in serum free medium 28 with exogenous GDNF 10 ng ml^−1 (R&D system), GFR^+ 75 ng ml^−1 (R&D system) and FGF2 1 ng ml^−1 (BD Biosciences). Average GFP^+ SSC colony area was measured and GFP^+ SSC cell number were counted 8 days after plating. Each condition was performed in triplicate.
FIG. 4. a. Quantication of GDNF levels by ELISA in conditioned media from TECs isolated from Fgfr1+/+ or Fgfr1−/− mice. Bar=1 cm. b. Images of testes from busulfan-treated (45 mgkg-1) WT mice 12 weeks post transplantation with PBS(Φ), Fgfr1+/+ TECs or Fgfr1/−/− TECs. Testis weights are indicated on the right (n=4). c. H&E images of testis sections from control (Fgfr1+/+) or endothelialspecic deletion of Fgfr1 (Fgfr1iΔEC/iΔEC) mice at 12 weeks after tamoxifen treatment to induce fgfr1 deletion from ECs. Red stars indicate empty seminiferous tubule. Bar=100 μm. d. Representative bright-eld and GFP images of GFP+ SSCs co-cultured with TECs with the addition of FGF±GDNF at the indicated concentrations after 4 weeks. SSC colony number and size over time are shown on right. e. Immunouorescence images of testis sections from Fgfr1+/+ or Fgfr1iΔEC/iΔEC mice 5 weeks after busulfan treatment at the indicated concentrations. […]

Substance: fibroblast growth factor-2 [FGF-2]
- GDNF production after FGF2 treatment [1]: stimulated robust GDNF production
- GDNF production after FGF2 treatment [2]: relatively modest induction of GDNF
- EGR-1 expression after FGF treatment [3]: minimal EGR-1 expression
- SSC colony formation (number and size of colonies) [4]: sufficient for SSC maintenance and expansion
